Data from US12329738B2, “Urolithin A and a composition containing same for external use in inflammations of various etiologies” (WARSZAWSKI UNIWERSYTET MEDYCZNY, priority 2018, dated 2025).

Key:
[1] = system: TNF-alpha; test: TNF-alpha production by THP-1 derived macrophages (ELISA); type: cell-based, human; conditions: 40 μM; LPS stimulation; FIG. 13
Description: (§1) Monocytes of the THP-1 line were cultured in RPMI 1640 medium supplemented with 10% FBS and 2 mM glutamine. For transformation of monocytes into macrophages, the cells were treated with 12.5 ng/mL PMA (phorbol 12-myristate 13-acetate) for 48 hours, then washed and incubated for 24 hours in a culture medium without PMA. After this time, urolithin A, urolithin B, iso-urolithin A and the corresponding glucuronides (GUA, GUB and GiUA) were added to the cells at a concentration of 40 μM. After 1 hour of incubation with the compounds, the cells were stimulated with LPS from Escherichia coli (10 ng/mL).
(§2) To assess the level of TNF-alpha production, the cells were incubated for 6 hours, to assess the expression of mRNA for TNF-alpha, the cells were incubated for 24 hours, to assess the effect on ERK1/2 phosphorylation, the cells were incubated for 35 minutes.
(§3) The level of TNF-alpha in the culture medium was determined using the immunochemical ELISA method (BD biosciences). Evaluation of the expression of mRNA for TNF-alpha was performed using real time PCR. After 24 hours of incubation, RNA was isolated using NucleoSpin RNA Clean-up (Macherey-Nagel). The amount and quality of isolated RNA was determined using 2100 Bioanalyzer (Agilent Technologies). The expression level of mRNA for TNF-α was determined using Brilliant II SYBR Green QPCR Kit and Aria Mx Real-Time PCR thermocycler (Agilent Technologies). The following were used as primers for TNF-alpha: forward: 5′-[…]-3′, reverse: 5′-[…]-3′. Beta-actin (ACTB) was used as the housekeeping gene; primer forward: 5′-[…]-3′, reverse: 5′-[…]-3′).
(§4) The obtained results of experiments on in vitro models were analyzed using the Statistica 13 program (StatSoft, Inc., Tulsa, OK, USA) and presented as mean values±SEM. Statistical significance was set at P≤0.05. The results with established normal distribution in the D'Agostin and Pearson test were prepared using analysis of variance (ANOVA). Parametric post-hoc analysis was performed using Dunnett's test.

[2] = system: Wistar rats (DNCB-induced atopic dermatitis); test: Ear thickness (edema) in DNCB-induced atopic dermatitis rat model; type: in vivo
Description: It is similar to the indications for use of hydrocortisone, which was used as a positive control in the study. Urolitin A was obtained by synthesis according to Bialonska et al. (Bialonska et al., 2009) or purchased from Sigma-Aldrich. The ointment containing urolithin A was prepared by emulsifying the weighed substance into a solid vehicle (white petrolatum) using an unguator. Wistar rats aged 5-6 weeks (at the start of the experiment) kept under standard conditions with free access to feed and water were used for the tests. The animals were divided into 5 groups, 8 individuals in each group. To prepare 2,4-dinitrochlorobenzene (DNCB) composition inducing inflammation, DNCB was dissolved in 70% ethanol to a final concentration of 1.5% (w/v). Therapeutic composition was an ointment based on white petrolatum with 0.2% or 1.0% urolithin A added. The control ointment was white petrolatum without addition of urolithin A. The induction of chronic atopic dermatitis involved local 9-fold infiltration with 60 μl 1.5% 2,4-dinitrochlorobenzene (DNCB) on each (external and internal) surface of the right ear over 3 weeks (3 times a week). Negative control was the right ear of rats without induction inflammation. Treatment of atopic dermatitis with 0.2% or 1.0% urolithin composition and white petrolatum (control) or 1.0% hydrocortisone composition (positive control) was started eight days after sensitization—one day before the fourth application of DNCB. Ointments with appropriate for given group drug added were applied in a total volume of about 20 μl to each ear surface one day before and 6 hours after each DNCB application (for a period of 3 weeks). The negative control group consisted of rats without induced inflammation and treated with white petrolatum in a regimen analogous to the composition of urolithin A or hydrocortisone. Ear thickness was assessed using an electronic mini caliper the day before inflammation was induced (day 0) and then on days 4 and 8 prior to treatment and on days 4, 8, 12, 16, […] of therapy with urolithin A composition (on days 12, 16, 20, 24, 28 and 32 after inflammation inducing, respectively). The experimental results obtained were analyzed using the Statistica 7.1 program (StatSoft, Inc., Tulsa, OK, USA) and presented as mean values±SE. Statistical significance was set at P≤0.05. The results with established normal distribution in the D'Agostin and Pearson test were prepared using two- or three-factor analysis of variance (ANOVA). Parametric post-hoc analysis for individual time points was performed using the Bonferroni test.

[3] = system: Wistar rats (DNCB-induced atopic dermatitis); test: Pruritus level (scratch reflexes) in DNCB-induced atopic dermatitis rat model; type: in vivo; conditions: topical ointment; urolithin A 0.2 and 1.0% (p<0.001), hydrocortisone 1% (p<0.01)
Description: Wistar rats aged 5-6 weeks (at the start of the experiment) kept under standard conditions with free access to feed and water were used for the tests. The animals were divided into 5 groups, 8 individuals in each group. To prepare 2,4-dinitrochlorobenzene (DNCB) composition inducing inflammation, DNCB was dissolved in 70% ethanol to a final concentration of 1.5% (w/v). Therapeutic composition was an ointment based on white petrolatum with 0.2% or 1.0% urolithin A added. The control ointment was white petrolatum without addition of urolithin A. The induction of chronic atopic dermatitis involved local 9-fold infiltration with 60 μl 1.5% 2,4-dinitrochlorobenzene (DNCB) on each (external and internal) surface of the right ear over 3 weeks (3 times a week). Negative control was the right ear of rats without induction inflammation. Treatment of atopic dermatitis with 0.2% or 1.0% urolithin composition and white petrolatum (control) or 1.0% hydrocortisone composition (positive control) was started eight days after sensitization—one day before the fourth application of DNCB. Ointments with appropriate for given group drug added were applied in a total volume of about 20 μl to each ear surface one day before and 6 hours after each DNCB application (for a period of 3 weeks). The negative control group consisted of rats without induced inflammation and treated with white petrolatum in a regimen analogous to the composition of urolithin A or hydrocortisone. Measurement of pruritus level (as measured by scratching reflexes) was evaluated as the total frequency of scratch reflexes during 10 minutes immediately after DNCB application on days 0, 4, 8, 12, 16, 20, 24, 28 and 32 of the experiment). Scratching was defined as a single or series of several reflexes of scratching with a paw directed at the site of DNCB application. The experimental results obtained were analyzed using the Statistica 7.1 program (StatSoft, Inc., Tulsa, OK, USA) and presented as mean values±SE. Statistical significance was set at P≤0.05. The results with established normal distribution in the D'Agostin and Pearson test were prepared using two- or three-factor analysis of variance (ANOVA). Parametric post-hoc analysis for individual time points was performed using the Bonferroni test.

[4] = system: Wistar rats (DNCB-induced atopic dermatitis); test: Peripheral blood morphology in DNCB-induced atopic dermatitis rat model; type: in vivo
Description: Wistar rats aged 5-6 weeks (at the start of the experiment) kept under standard conditions with free access to feed and water were used for the tests. The animals were divided into 5 groups, 8 individuals in each group. To prepare 2,4-dinitrochlorobenzene (DNCB) composition inducing inflammation, DNCB was dissolved in 70% ethanol to a final concentration of 1.5% (w/v). Therapeutic composition was an ointment based on white petrolatum with 0.2% or 1.0% urolithin A added. The control ointment was white petrolatum without addition of urolithin A.
The induction of chronic atopic dermatitis involved local 9-fold infiltration with 60 μl 1.5% 2,4-dinitrochlorobenzene (DNCB) on each (external and internal) surface of the right ear over 3 weeks (3 times a week). Negative control was the right ear of rats without induction inflammation.
Treatment of atopic dermatitis with 0.2% or 1.0% urolithin composition and white petrolatum (control) or 1.0% hydrocortisone composition (positive control) was started eight days after sensitization—one day before the fourth application of DNCB. Ointments with appropriate for given group drug added were applied in a total volume of about 20 μl to each ear surface one day before and 6 hours after each DNCB application (for a period of 3 weeks). The negative control group consisted of rats without induced inflammation and treated with white petrolatum in a regimen analogous to the composition of urolithin A or hydrocortisone.
2 mL blood samples were drawn into syringes (containing heparin as an anticoagulant) from the heart under general anesthesia (isoflurane) on day 32 of the experiment. The test was conducted using the DIATRON automated hematology analyzer. Peripheral blood analysis included the assessment of morphotic elements in blood: erythrocytes, leukocytes and thrombocytes and determination of the number and percentage of different types of leukocytes—WBC as well as values of erythrocyte indicators: hemoglobin (HGB), hematocrit (HCT), mean corpuscular volume (MCV), mean corpuscular hemoglobin (MCH) and mean corpuscular hemoglobin concentration (MCHC).
The experimental results obtained were analyzed using the Statistica 7.1 program (StatSoft, Inc., Tulsa, OK, USA) and presented as mean values±SE. Statistical significance was set at P≤0.05. The results with established normal distribution in the D'Agostin and Pearson test were prepared using two- or three-factor analysis of variance (ANOVA). Parametric post-hoc analysis for individual time points was performed using the Bonferroni test.

[5] = system: TNF-alpha; test: TNF-alpha production by macrophages from human peripheral blood monocytes (ELISA); type: cell-based; conditions: 40 μM; LPS 100 ng/mL, 24 h; FIG. 16
Description: Monocytes were isolated from peripheral human blood by a standard method using dextran sedimentation and Ficoll Hypaque gradient centrifugation. After isolation, monocytes were suspended in RPMI 1640 medium supplemented with L-glutamine, HEPES, streptomycin, amphotericin and gentamicin, and 20% autologous serum. Cell culture was carried out under these conditions for 7 days. […] After 24h, TNF-alpha level in the medium was determined using the immunochemical ELISA method (BD biosciences). The obtained results of experiments on in vitro models were analyzed using the Statistica 13 program (StatSoft, Inc., Tulsa, OK, USA) and presented as mean values±SEM. Statistical significance was set at P≤0.05. The results with established normal distribution in the D'Agostin and Pearson test were prepared using analysis of variance (ANOVA). Parametric post-hoc analysis was performed using Dunnett's test.

[6] = system: ERK1/2; test: ERK1/2 phosphorylation in THP-1 derived macrophages (Western blotting); type: cell-based, human; conditions: 40 μM; LPS 10 ng/mL, 35 min; FIG. 15
Description: Monocytes of the THP-1 line were cultured in RPMI 1640 medium supplemented with 10% FBS and 2 mM glutamine. For transformation of monocytes into macrophages, the cells were treated with 12.5 ng/mL PMA (phorbol 12-myristate 13-acetate) for 48 hours, then washed and incubated for 24 hours in a culture medium without PMA. After this time, urolithin A, urolithin B, iso-urolithin A and the corresponding glucuronides (GUA, GUB and GiUA) were added to the cells at a concentration of 40 μM. After 1 hour of incubation with the compounds, the cells were stimulated with LPS from Escherichia coli (10 ng/mL). To assess the level of TNF-alpha production, the cells were incubated for 6 hours, to assess the expression of mRNA for TNF-alpha, the cells were incubated for 24 hours, to assess the effect on ERK1/2 phosphorylation, the cells were incubated for 35 minutes. […] The obtained results of experiments on in vitro models were analyzed using the Statistica 13 program (StatSoft, Inc., Tulsa, OK, USA) and presented as mean values±SEM. Statistical significance was set at P≤0.05. The results with established normal distribution in the D'Agostin and Pearson test were prepared using analysis of variance (ANOVA). Parametric post-hoc analysis was performed using Dunnett's test.

[7] = system: mRNA for TNF-alpha; test: TNF-alpha mRNA expression in THP-1 derived macrophages (real time PCR); type: cell-based, human; conditions: 40 μM; LPS stimulation; FIG. 14
Description: as §1, §2, §3, §4

[8] = day 32, 1% hydrocortisone, urolithin A 0.2 and 1%

Q: For “urolitin A 3-O-glucuronide and urolitin A 8-O-glucuronide [GUA]”, which “TNF-alpha production by THP-1 derived macrophages” value [1] is on record?
A: The value was “did not show any activity”.

Q: C[C@]12CCC(=O)C=C1CC[C@@H]1[C@@H]2[C@@H](O)C[C@@]2(C)[C@H]1CC[C@]2(O)C(=O)CO [hydrocortisone] was tested. Which “Time profile of anti-edema effect, urolithin A vs. hydrocortisone” value ([2]; initial period of therapy (up to 12 days)) did it give?
A: The value was “greater therapeutic effectiveness”.

Q: And the “Ear edema (ear thickness) after local therapy” value ([2]; topical ointment in white petrolatum, urolithin A 0.2 and 1.0%, hydrocortisone 1%, urolithin A p<0.001, hydrocortisone p<0.01)?
A: The value was “reduced”.

Q: What about the “Scratching rate (frequency of scratch reflexes)” value [3] of the same molecule?
A: The value was “reduction in scratching rate”.

Q: And the “WBC (leukocyte) level” value ([4]; 1% composition, day 32, vs petrolatum, hydrocortisone p<0.05, urolithin A p<0.01)?
A: Its value is “significant reduction in WBC”.

Q: What about the “Final WBC values compared to negative control (without atopic dermatitis)” value ([4]; 1% hydrocortisone, urolithin A 0.2 and 1%) of the same molecule?
A: The value was “remained at a higher level compared to negative control groups”.

Q: What about the “MPV (fl), PDW (fl), PDWcv (%)” value ([4]; day 32) of the same molecule?
A: The value was “did not change”.

Q: What about the “RBC, HGB, HCT, MCV” value ([4]; day 32) of the same molecule?
A: Its value is “no changes”.

Q: What about the “Thrombocrit (PCT %)” value ([4]; day 32, 1% composition, vs negative control, p<0.01) of the same molecule?
A: The value was “significantly higher values compared to the negative control group”.

Q: What about the “Number of thrombocytes (PLT)” value ([4]; day 32, 1% composition, vs negative control, p<0.05) of the same molecule?
A: Its value is “significantly higher values compared to the negative control group”.

Q: What about the “Concentration of hemoglobin in erythrocytes (MCH and MCHC)” value ([4]; day 32, 1% hydrocortisone (p<0.05), urolithin A 0.2 and 1.0%) of the same molecule?
A: The value was “decrease in the concentration of hemoglobin in erythrocytes”.

Q: What about the RDW parameter level ([4]; day 32, 1% hydrocortisone, p<0.05) of the same molecule?
A: Its RDW parameter level is “decrease in the RDW parameter level”.

Q: What about the Monocyte population [4, 8] of the same molecule?
A: The Monocyte population was “reducing the population of monocytes and neutrophils”.

Q: What about the Neutrophil population [4, 8] of the same molecule?
A: The Neutrophil population was “reducing the population of monocytes and neutrophils”.

Q: And the Lymphocyte level ([4]; day 32, 1% hydrocortisone, urolithin A 0.2 and 1%, vs petrolatum)?
A: Its Lymphocyte level is “no significant differences”.

Q: How did the “TNF-alpha production by THP-1 derived macrophages” value [1] turn out when CC(=O)Oc1ccc2c(c1)oc(=O)c1ccccc12 [3-acetyl-urolithin B, reference compound] was run?
A: The value was “did not show any activity”.

Q: O=c1oc2cc(O)ccc2c2cc(O)ccc12 [iso-urolithin A] was tested. Which “Inhibition of TNF-alpha production by macrophages from human peripheral blood monocytes” value [5] did it give?
A: Its value is “significantly less active”.

Q: And the “ERK1/2 kinase phosphorylation in THP-1 derived macrophages” value [6]?
A: The value was “much less active”.

Q: And the “TNF-alpha mRNA expression in THP-1 derived macrophages” value [7]?
A: The value was “stimulated mRNA expression”.

Q: And the “TNF-alpha production by THP-1 derived macrophages” value [1]?
A: The value was “stimulated the production of TNF-alpha”.

Q: Which “TNF-alpha production by THP-1 derived macrophages” value [1] does the source give for O=C(O)[C@H]1O[C@@H](Oc2ccc3c(c2)oc(=O)c2ccccc23)[C@H](O)[C@@H](O)[C@@H]1O [GUB, urolitin B 3-O-glucuronide] here?
A: Its value is “did not show any activity”.

Q: Which “TNF-alpha production by THP-1 derived macrophages” value [1] does the source give for O=C(O)[C@H]1O[C@@H](Oc2ccc3c(c2)oc(=O)c2ccc(O)cc23)[C@H](O)[C@@H](O)[C@@H]1O [GiUA, Iso-urolithin A 3-O-glucuronide] here?
A: The value was “did not show any activity”.
